In patent US20220152044A1, “TREATMENT OF INFLAMMATORY DISEASES OF THE CENTRAL NERVOUS SYSTEM” (PALMAYA PTY LTD, priority 2019, published 2022):

Columns and labels:
[1] = test system: cannabis withdrawal; assay: Withdrawal from cannabis with high THC concentrations; type: in vivo, human; settings: flumazenil 160 μg/hour
Excerpt: Cannabis use has changed in recent years with a significant cohort describing high tetrahydrocannabinol (THC) concentrations in potent strains which are cultivated for their high THC content. In the patient group using these high concentrations of THC, we have noted that a group of patients give a clear cut history of extreme nausea, vomiting, anxiety changing to serious paranoid thoughts and delusions followed by psychosis over the first 3-5 days of ceasing drug use.
In a severe patient population, ondansetron may be given every 6-8 hours to assist in reducing the nausea and associated anxiety symptoms.
Our results indicated a clear reduction in anxiety, and paranoid symptoms, allowing patients who otherwise would be unable to cope with the symptoms, to cease cannabis use.

[2] = test system: premenstrual tension; assay: Premenstrual anxiety and symptoms in women treated with flumazenil; type: in vivo, human; settings: women complaining of premenstrual tension
[3] = Water bath release rate testing of flumazenil implant; type: physicochemical; settings: based on water bath release rate testing
Procedure: (§1) The patient was then treated with a subcutaneous implant delivering an estimated 60-80 micrograms per hour of flumazenil (based on water bath release rate testing). The implant was expected to last 8-10 weeks. This prevented the migraines for about 9-10weeks. In the week before the implant was inserted, the patient's blood flumazenil level was noted to be 0.5 ng/ml. The usual expected level for 160 microgram an hour infusions was in the order of 2-3 ng per ml and 1-1.5 ng for 80 microgram per hour infusions.

[4] = Swelling at the site of subcutaneous injection of flumazenil solution; type: in vivo, human; settings: 16 mg per 30 ml solution, 4 mg in 7.5 ml a day versus standard ampoules 4 mg in 40 ml
Procedure: In our experience, this is the first flumazenil solution prepared for subcutaneous delivery making it possible to deliver 4 mg of flumazenil in a volume of just 7.5 ml per day. Clinically, this is preferred to the standard flumazenil preparations, which involve injecting 4 mg in 40 ml per day. For example, the lower volume results in less swelling at the site of injection.
During our development of flumazenil ampoules we have found the preferred pH is about 4±1. In addition, the volume and dilution of flumazenil is preferably 16 mg per 30 ml. In our experience this was the first flumazenil made for subcutaneous delivery, and therefore, a dose of flumazenil at 4 mg can be administered in a volume of only 7.5 ml a day. Clinically, this is more convenient than the standard flumazenil ampoules which involve injecting 4 mg in a volume of 40 ml. […] In addition, the packaging of a dose of flumazenil of 16 mg in 30 ml enables clinical staff to use one ampoule for 4 days at 4 mg a day and one ampoule for 8 days at doses of 2 mg per day.

[5] = test system: migraine patients; assay: Two migraine patients, follow-up during and after flumazenil delivery; type: in vivo, human
Procedure: Two migraine patients initially described migraine symptoms, are both symptom free for more than a year. No repeat treatments occurred in the second of the migraine patients, and as such, believe that the treatment might be curative in some patients.
In these two patients treated for migraines, the first patient the history of migraines affecting their required an infusion initially, and then flumazenil implants maintaining at least 1 ng per ml of flumazenil to achieve relief of symptoms. In a second patient we noted that the symptom relief has lasted for more than 12 months when treatment with a flumazenil implant lasting an estimated six months occurred.

[6] = test system: migraine; assay: Treatment of migraine in a person with flumazenil infusion and subcutaneous implants; type: in vivo, human
Procedure: The patient recently presented to our clinic, and was treated with flumazenil given subcutaneously at a rate of 160 micrograms per hour, delivered by a spring driven pump for a continuous period of time. The time that the migraines regularly occurred was the week prior to menstruation.
as §1
This finding that the migraines were stopped for a nine week period of time was amazing to the patient as they had suffered migraines for typically three weeks out of four for all of the years […]. At the end of week 8 on the first implant their blood flumazenil level was recorded as 0.5 ng per ml, which is considered a low level. Within a week another migraine started and the patient presented to the clinic for treatment.
A further subcutaneous implant was inserted and within four hours all symptoms from the migraine had settled. This was most unusual and unexpected as the symptoms following migraines usually persisted many days for this patient.
This next implant was also delivering an estimated 60-80 micrograms of flumazenil per hour. Evidence of ovulation was confirmed by routine elevation of progesterone during the luteal phase of one of the two cycles during the time of this second implant. Again no migraines occurred during an 8-9 week time of the second implant. Blood levels of flumazenil at 1.2 and 1.3 ng/ml were recorded during the time of the second implant. After 9-10 weeks the patient, presented to a teaching hospital on the weekend with another migraine. They were treated with all the modern treatments for migraines without resolution of the migraine.
A few days later a third implant was inserted. It again was surprising that all symptoms relating to the migraine settled within four hours.

[7] = test system: opioid use; assay: Abstinence from opioids in 108 patients treated with flumazenil; type: in vivo, human; settings: 91.2% before flumazenil
Excerpt: In the 108 patients treated with flumazenil abstinence from opioids increased from 91.2% before flumazenil to 100% following the flumazenil treatment.

[8] = test system: cannabis use; assay: Survey of 109 patients, cannabis use after flumazenil infusion; type: in vivo, human
Excerpt: In a survey of 109 patients daily use was close to halved from 10% to 5.5%.

[9] = test system: methamphetamine use; assay: Survey of 109 patients, methamphetamine use after flumazenil infusion; type: in vivo, human
Excerpt: In a survey of 109 patients treated with flumazenil 4.9% were using methamphetamines daily and this fell to 0.9% following treatment with the flumazenil infusion. Abstinence from methamphetamine use increased from 67% before flumazenil treatment to 87% following treatment. This means that 33% of patients using methamphetamines fell to 13% following treatment with flumazenil.

[10] = test system: craving for nicotine; assay: Nicotine craving and use in patients; type: in vivo, human; settings: flumazenil by infusion or nasally/sublingually 50 to 200 micrograms per dose

## CCOC(=O)c1ncn2c1CN(C)C(=O)c1cc(F)ccc1-2 [flumazenil]
[1]
  nausea, vomiting, anxiety, paranoid thoughts, delusions, psychosis on ceasing high-THC cannabis: controls or reduces the presence of these symptoms
[2]
  premenstrual symptoms: reduction in premenstrual symptoms
[3]
  estimated delivery rate of flumazenil from subcutaneous implant: 60-80 micrograms per hour
[4]
  swelling of the tissues at the site of injection: less swelling
[5]; first migraine patient, infusion initially then implants
  flumazenil level maintained by implants to achieve relief of symptoms: at least 1 ng per ml
[5]; second patient, flumazenil implant lasting an estimated six months, no repeat treatment
  duration of symptom relief: more than 12 months
[5]; two migraine patients
  symptom free period: more than a year
[6]; after insertion of the further (second) subcutaneous implant
  time until all symptoms from the migraine had settled: four
[6]; after insertion of the third implant
  time until all symptoms relating to the migraine settled: four
[6]; second implant, estimated 60-80 micrograms flumazenil per hour
  time without migraines: 8-9 week
[6]; subcutaneous infusion 160 micrograms per hour by spring driven pump
  occurrence of migraine at the expected time (week prior to menstruation): did not occur
[7]
  abstinence from opioids following treatment: 100%
[8]; 109 patients, 10% before
  daily cannabis use following treatment: 5.5%
[8]; 109 patients, 75% before
  abstinence from cannabis following treatment: 83.5%
[8]; patients who presented to cease cannabis
  patient-reported cannabis cessation symptoms (nausea day one, anxiety, sleep, paranoid and psychotic thinking, suicidal thoughts): anxiety was decreased and sleep was better
[9]; 33% before treatment
  patients using methamphetamines following treatment: 13%
[9]; 109 patients, flumazenil infusion, 4.9% before
  patients using methamphetamines daily following treatment: 0.9%
[9]; 109 patients, 67% before flumazenil treatment
  abstinence from methamphetamine use following treatment: 87%
[10]
  craving for and use of nicotine: reduced craving and use
